Converted amounts (≈) assume the structure as drawn. Where a name gives a salt, the structure may show the parent alone. Read-outs that look alike come from different tables or passages of the source.

We go through 2 compounds from patent publication EP1479388A1, “Ready to use gemcitabin solution concentrates” (STADA ARZNEIMITTEL AG, priority 2003, dated 2004).

The conditions of data set [1]: cited from earlier work.
Data set [2] can be described thus: Maximum solubility in 66 Vol.-% ethanol after dissolving at 35-45 °C and cooling, HPLC (Beispiel 4). The note with it: dissolved at 35-45 °C 6 h, cooled, 24 h at 19-23 °C. Type of data set: physicochemical. As to the method: Die maximale Löslichkeit von Gemcitabinhydrochlorid wurde unter weiterer Verwendung von 1 N Natronlauge, Wasser für Injektionszwecke und absolutem Ethanol, in als hierfür optimal erkanntem 66 Vol.-%-igem Anteil bei gesteigerten Lösungstemperaturen (35-45 °C, 6 Stunden Rühren) und anschließendem Abkühlen auf Raumtemperatur (19-23 °C) und 24-stündiger Lagerung bei 19-23 °C ermittelt. Hierbei wurde im partikelfreien Überstand der gelagerten Lösungen mittels HPLC ein Gehalt von 95,1 mg/ml Gemcitabin bzw. 108,3 mg/ml Gemcitabinhydrochlorid bestimmt.

A short description of data set [3]: Saturation concentration of gemcitabine in aqueous-ethanolic solutions, HPLC (Beispiel 3). As to conditions: interpolation (Polynom 6. Grades), ca. 66 Vol.% Ethanolanteil, pH 10 +/-0,5. Type of data set: physicochemical. The text has this:
Um die Sättigungskonzentration von Gemcitabin in wässrig-ethanolischeh Lösungen zu ermitteln, wurden Gemcitabin-Lösungen mit verschiedenen Volumenanteilen an Ethanol hergestellt und analysiert.
Hierzu wurde Gemcitabinhydrochlorid im Ansatzbehälter vorgelegt, mit einer stöchiometrischen Menge an wässrig gelöstem Alkalisierungsmittel (1 N Natronlauge) versetzt, anschließend mit jeweils 80 % der in Vortests ermittelten erforderlichen Mengen an Wasser für Injektionszwecke als auch mit jeweils erforderlichen Mengen an Ethanol versetzt.
Die im Ansatz enthaltenen Bestandteile wurden anschließend unter 6-stündigem Rühren bei Raumtemperatur (19-23 °C) derart gelöst, dass ein ungelöster Bodensatz an Gemcitabinhydrochlorid im Ansatzbehälter verblieb. Der pH-Wert des Ansatzes wurde potentiometrisch bestimmt und erforderlichenfalls mit 1 N Natronlauge bzw. 1 N Salzsäure auf einen pH-Wert von 10 eingestellt, um mit diesem pH-Wert eine vollständige Umsetzung des Gemcitabinhydrochlorids zur gelösten Gemcitabinbase zu erzielen.
Der Ansatz wurde 24 Stunden bei 19-23 °C gelagert. Der pH-Wert wurde anschließend kontrolliert und nur solche klaren Überstände der Ansätze weiterverarbeitet, deren pH-Werte 10 +/- 0,5 betrugen. Diese wurden dann partikelfrei filtriert und der Gehalt an Gemcitabin per HPLC bestimmt.

For `Nc1ccn([C@@H]2O[C@H](CO)[C@@H](O)C2(F)F)c(=O)n1` [Gemcitabin, 2'-Deoxy-2',2'-difluorcytidin], the “Löslichkeit des Gemcitabins in Wasser” value in data set [1] (pH-Bereich von 2,7 bis 3,3) was “ca. 38 mg/ml”; in data set [1] (pH-Wert von 5), 16,0 mg/ml; in data set [1] (pH-Wert von 7), 15,3 mg/ml; in data set [1] (pH-Wert von 9), 15,8 mg/ml. Moreover, the solubility at 24 h in data set [2] (66 vol% aqueous ethanol, organic solvent or mixture, read-out: maximale Löslichkeit (Gehalt im partikelfreien Überstand)) turned out to be 95.1 mg/mL (≈ 361 mM). Besides, the solubility thermodynamic in data set [3] (66 vol% aqueous ethanol, pH 10, organic solvent or mixture, read-out: Maximum der Gemcitabin-Löslichkeit) was 50 mg/mL (≈ 190 mM).

Take `Nc1ccn([C@@H]2O[C@H](CO)[C@@H](O)C2(F)F)c(=O)n1` [Gemcitabinhydrochlorid]: the “maximale Löslichkeit (Gehalt im partikelfreien Überstand)” value in data set [2] (1440 min) is reported as 108,3 mg/ml. For the same compound, in data set [3], the “Maximum der Gemcitabin-Löslichkeit” value came to 55 mg/mL.
